From US20250049735A1, “MEDICINE FOR STEATOHEPATITIS” (The University of Tokyo, priority 2021, published 2025)
Like-named read-outs stand apart in the source and are kept apart here.

Legend:
[1] = system: Tax-iIEC-KO mice; conditions: for concentration of betaine in the liver / concentration of choline in the liver: compared with control mice
From the text: Atp8b1^flox/flox mice were mated with villin-Cre/ERT2 transgenic mice (Stock No. 020282; The Jackson Laboratory), and Atp8b1^flox/+; villin-Cre/ERT2 mice in the obtained offsprings were then mated with Atp8b1^flox/flox mice to obtain Tamoxifen-induced, intestinal epithelial cell (IEC)-specific Atp8b1 knockout (Atp8b1Tax-iIEC-KO: Atp8b1^flox/flox; villin-Cre/ERT2) mice (Atp8b1 Tax-iIEC-KO mice). The resulting Atp8b1 Tax-iIEC-KO mice and littermate Atp8b1^flox/flox mice were used for animal experiments.
(§1) ALT and AST were determined by automatic measurement with Dri-chem (FUJIFILM, Tokyo, Japan).
The liver was cut into small pieces, was then fixed with 10% neutral buffered formalin, and was then embedded in paraffin. The small intestine was rinsed with PBS, was fixed with 10% neutral buffered formalin, was then cut into 2 segments (corresponding to the proximal side and the distal side), and was then opened longitudinally. The thus cut small intestine was opened with a toothpick, was immobilized with a pathological pin, was then fixed with 10% neutral buffered formalin, and was then embedded in paraffin. Paraffin sections (3 μm each) were prepared, and were then deparaffinized and rehydrated. Thereafter, the resulting paraffin sections were stained with hemotoxylin and eosin, and were then mounted in Entellan new (Merck, Branchburg, NJ).
The concentrations of choline, betaine, dimethylglycine (N,N-dimethylglycine) and glycerophosphorylcholine (sn-glycero-3-phosphocholine) in plasma were determined by liquid chromatography/tandem mass spectrometry (LC/MS/MS) assay. The sample was mixed with 98-fold volume of ethanol and 1-fold volume of the internal standard (IS) solution (10 μmol/L choline in water, 10 μmol/L glycerophosphorylcholine in water, and 1 μmol/L betaine in water). After vortex mixing, the sample was centrifuged at 21,500×g at 4° C. for 5 minutes. The obtained supernatant was injected into a UHPLC Nexera liquid chromatography system (Shimadzu co., Kyoto, Japan) equipped with an Ascentis Express HILIC column (2.1×50 mm, 2.7 μm, Merck KGaA, Darmstadt, Germany), and was then maintained at 4° C. The analyte was separated from the internal standard by gradient elution of mobile phase A (10 mmol/L ammonium acetate in water) and of mobile phase B (acetonitrile/water mixture) (99:1, v/v)). The gradient elution was carried out under the following conditions: 0-2 min., 82.5% B; 2-4 min., 82.5% to 5% B and 4-7 min. 5% B with a flow rate of 0.6 mL/min. The eluate was directly subjected to electrospray ionization under a positive ion mode using a 5500QTRAP mass spectrometer (Sciex pte. ltd., Toronto, Canada). All target molecules were scanned by selected reaction monitoring (SRM) mode.
Eight-week-old Tax-iIEC-KO mice and control mice were started to be fed with a control diet, a 0.3% choline supplemented diet, or a 1% choline supplemented diet, and at the same time, the Tax-iIEC-KO mice and the control mice were administered with 1 mg/day of Tamoxifen for 5 consecutive days. Thereafter, the mice were dissected at 10 weeks of age.

[2] = system: Atp8b1 E-KO mice; conditions: mother mice fed 1% choline supplemented diet; pups at 4 weeks of age
Description: All animal experiments were approved by and performed in accordance with the guidelines of the animal experiment committee of the University of Tokyo. To generate Atp8b1^flox/flox mice, ICR and C57BL/6J mice were purchased from Charles River Laboratories International, Inc. (Yokohama, Japan). Mice were kept under pathogen-free conditions at a room temperature of 23.5° C.±2.5° C. and a relative humidity of 52.5%+12.5% under a 14-hour light: 10-hour dark cycle. […] In order to supplement choline to pups, mother mice were fed with a 1.0% choline supplemented diet (D20011404, Research Diets) until weaning of their pups.
Male mice harboring the designed floxed Atp8b1 allele with flox mutation were bred with female C57BL/6 mice, and the heterozygous floxed (Atp8b1^flox/+) mice in the obtained offsprings were intercrossed to produce homozygous floxed (Atp8b1^flox/flox) mice. The Atp8b1^flox/flox mice were crossed with villin-Cre transgenic mice (Stock No: 021504; The Jackson Laboratory, Bar Harbor, ME), and Atp8b1^flox/+; villin-Cre mice in the obtained offsprings were mated with Atp8b1^flox/flox mice to obtain intestinal epithelial cell (IEC)-specific Atp8b1 knockout (Atp8b1 IEC-KO; Atp8b1^flox/flox; villin-Cre) mice (Atp8b1 E-KO). Male Atp8b1 E-KO were mated with female Atp8b1^flox/flox mice, and the resulting Atp8b1 E-KO mice and littermate Atp8b1^flox/flox mice were used for animal experiments.
Male 3 to 4-week-old intestinal epithelial cell-specific Atp8b1 knockout (Atp8b1 E-KO) mice and control mice (littermate Flox/Flox mice) underwent laparotomy under isoflurane anesthesia. […] The blood was centrifuged at 1,700×g for 15 minutes, and plasma was separated. Thereafter, the plasma was flash-frozen in liquid nitrogen and was stored at −80° C. The liver was excised and was then flash-frozen in liquid nitrogen, and thereafter, the thus frozen liver was stored at −80° C., or was used for histological and electron microscopic analyses. The small intestine was excised, was then rinsed with cold PBS containing 0.5m M taurocholic acid, and was then used for histological and electron microscopic analyses, or for preparation of epithelial cells. To isolate epithelial cells from small intestine, TTDR kit (Becton Dickinson, Becton Drive Franklin Lakes, NJ) was used. According to the manufacturer's instructions included with the kit, the small intestine was opened longitudinally, was sliced into small fragments with a size of roughly 2 mm. The fragments were incubated with 1×TTDR diluted with DMEM (11995-065, gibco) at 37° C. for 30 minutes, and the resulting fragments were then mixed with 2 mM EDTA/PBS containing 1% BSA. The thus obtained mixture was filtrated through a 70 μm cell strainer (VWR21008-952; Corning Inc, Corning, NY), and was then centrifugated at 250×g at 4° C. for 10 minutes. The obtained cell pellets were incubated with 1×Pharm Lyse (Becton Dickinson, Becton Drive Franklin Lakes, NJ) at room temperature for 15 minutes for the lysis of red blood cells, and the resultant was then mixed with 2 mM EDTA/PBS containing 1% BSA. The thus obtained mixture was centrifuged at 250×g at 4° C. for 10 minutes. The prepared epithelial cells were flash frozen in liquid nitrogen, and were then stored at −80° C.
as §1
The liver was cut into small pieces, was then fixed with 10% neutral buffered formalin, and was then embedded in paraffin. […]

[3] = 0.3% choline supplemented diet, 8 to 10 weeks of age
[4] = choline supplemented diet (0.3% or 1%) from 8 to 10 weeks of age, Tamoxifen 1 mg/day for 5 days

Structure (SMILES): C[N+](C)(C)CCO [choline]
- increase in liver injury markers (AST and ALT) [1, 3]: suppressed
- onset of steatohepatitis (liver pathological images) [1, 3]: suppressed
- concentration of betaine in the liver ([1]; 0.3% choline supplemented diet): recovered
- concentration of choline in the liver ([1]; 0.3% choline supplemented diet): recovered
- increase in liver injury markers (AST and ALT) ([1]; 1% choline supplemented diet, 8 to 10 weeks of age): suppressed
- concentration of betaine in the liver ([1]; 1% choline supplemented diet): recovered
- concentration of choline in the liver ([1]; 1% choline supplemented diet): recovered
- body weight [1, 4]: not changed
- small intestine length [1, 4]: not changed
- amount of neutrophils (MPO positive cells) in the liver [2]: reduced
- amount of tissue macrophages (F4/80 positive cells) in the liver [2]: reduced
- body weight [2]: No changes were observed
- increase in liver weight observed in Atp8b1 E-KO pups [2]: resolved
- small intestine length [2]: No changes were observed
